# Assay results reported in ChEMBL document CHEMBL1201862, “PubChem BioAssay data set” (2004).
#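 Cultured in 96-well plates, cells were exposed to test compound for 48 hours across five concentrations. GI50: concentration for 50% inhibition of growth.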 Active and inactive are the calls of the source. Cut-off read from the data, not from the text of the source: active = GI50 up to about 1.1 µM and inactive = higher.
# Tests used:
# Test in all cases: growth of human tumour cells (NCI), 48 h
# 786-0 = tested on: 786-0
# A498 = tested on: A498
# A549 = tested on: A549
# ACHN = tested on: ACHN
# CAKI-1 = tested on: CAKI-1
# CCRF-CEM = tested on: CCRF-CEM
# COLO 205 = tested on: COLO 205
# DLD-1 = tested on: DLD-1
# DMS-114 = tested on: DMS-114
# DMS-273 = tested on: DMS-273
# EKVX = tested on: EKVX
# HCC 2998 = tested on: HCC 2998
# HCT-116 = tested on: HCT-116
# HCT-15 = tested on: HCT-15
# HL-60 = tested on: HL-60
# HOP-18 = tested on: HOP-18
# HOP-62 = tested on: HOP-62
# HOP-92 = tested on: HOP-92
# HT-29 = tested on: HT-29
# IGROV-1 = tested on: IGROV-1
# K562 = tested on: K562
# KM-20L2 = tested on: KM-20L2
# KM12 = tested on: KM12
# LOX IMVI = tested on: LOX IMVI
# LXFL 529 = tested on: LXFL 529
# M14 = tested on: M14
# M19-MEL = tested on: M19-MEL
# MOLT-4 = tested on: MOLT-4
# Malme-3M = tested on: Malme-3M
# NCI-H226 = tested on: NCI-H226
# NCI-H23 = tested on: NCI-H23
# NCI-H460 = tested on: NCI-H460
# NCI-H522 = tested on: NCI-H522
# OVCAR-3 = tested on: OVCAR-3
# OVCAR-4 = tested on: OVCAR-4
# OVCAR-5 = tested on: OVCAR-5
# OVCAR-8 = tested on: OVCAR-8
# RXF 393 = tested on: RXF 393
# SF-268 = tested on: SF-268
# SF-295 = tested on: SF-295
# SF-539 = tested on: SF-539
# SK-MEL-28 = tested on: SK-MEL-28
# SK-MEL-2 = tested on: SK-MEL-2
# SK-MEL-5 = tested on: SK-MEL-5
# SK-OV-3 = tested on: SK-OV-3
# SN12C = tested on: SN12C
# SNB-19 = tested on: SNB-19
# SNB-75 = tested on: SNB-75
# SR = tested on: SR
# SW-620 = tested on: SW-620
# TK-10 = tested on: TK-10
# U-251 = tested on: U-251
# UACC-257 = tested on: UACC-257
# UACC-62 = tested on: UACC-62
# UO-31 = tested on: UO-31
# XF498 = tested on: XF498
structure (smiles),measurement,setting,value
CC(C)(C)c1ccc(C(O)c2ccc(C(C)(C)C)cc2)cc1,GI50,786-0,15.5 µM (inactive)
same,GI50,A498,18.7 µM (inactive)
same,GI50,A549,14.2 µM (inactive)
same,GI50,ACHN,16.6 µM (inactive)
same,GI50,CAKI-1,15.1 µM (inactive)
same,GI50,CCRF-CEM,16.9 µM (inactive)
same,GI50,COLO 205,13.6 µM (inactive)
same,GI50,DLD-1,14.6 µM (inactive)
same,GI50,DMS-114,12.7 µM (inactive)
same,GI50,DMS-273,12.6 µM (inactive)
same,GI50,EKVX,17.7 µM (inactive)
same,GI50,HCC 2998,21 µM (inactive)
same,GI50,HCT-116,12.1 µM (inactive)
same,GI50,HCT-15,12.1 µM
same,GI50,HL-60,17.1 µM (inactive)
same,GI50,HOP-18,17.5 µM (inactive)
same,GI50,HOP-62,16.3 µM (inactive)
same,GI50,HOP-92,12.6 µM (inactive)
same,GI50,HT-29,10.4 µM (inactive)
same,GI50,IGROV-1,16.1 µM (inactive)
same,GI50,K562,14.7 µM (inactive)
same,GI50,KM-20L2,17.7 µM (inactive)
same,GI50,KM12,15.6 µM (inactive)
same,GI50,LOX IMVI,14.7 µM (inactive)
same,GI50,LXFL 529,15.5 µM (inactive)
same,GI50,M14,15 µM (inactive)
same,GI50,M19-MEL,13.7 µM (inactive)
same,GI50,MOLT-4,17.6 µM (inactive)
same,GI50,Malme-3M,15.8 µM (inactive)
same,GI50,NCI-H226,4.72 µM (inactive)
same,GI50,NCI-H23,12.1 µM (inactive)
same,GI50,NCI-H460,12.8 µM (inactive)
same,GI50,NCI-H522,10.2 µM (inactive)
same,GI50,OVCAR-3,14.5 µM (inactive)
same,GI50,OVCAR-4,15.2 µM (inactive)
same,GI50,OVCAR-5,16.6 µM (inactive)
same,GI50,OVCAR-8,14.8 µM (inactive)
same,GI50,RXF 393,17.1 µM (inactive)
same,GI50,SF-268,20 µM (inactive)
same,GI50,SF-295,14 µM (inactive)
same,GI50,SF-539,17.3 µM (inactive)
same,GI50,SK-MEL-28,16.8 µM (inactive)
same,GI50,SK-MEL-2,15.2 µM (inactive)
same,GI50,SK-MEL-5,16.6 µM (inactive)
same,GI50,SK-OV-3,14.7 µM (inactive)
same,GI50,SN12C,13.1 µM (inactive)
same,GI50,SNB-19,17.9 µM (inactive)
same,GI50,SNB-75,19.2 µM (inactive)
same,GI50,SR,23.9 µM (inactive)
same,GI50,SW-620,14.6 µM (inactive)
same,GI50,TK-10,21.1 µM (inactive)
same,GI50,U-251,13.1 µM (inactive)
same,GI50,UACC-257,18.8 µM (inactive)
same,GI50,UACC-62,15.8 µM (inactive)
same,GI50,UO-31,16 µM (inactive)
same,GI50,XF498,15.1 µM (inactive)
